From PubChem BioAssay (NCI)
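Five concentrations, 48 hours, 96-well plates. GI50 marks 50% less growth. Definition used: TGI = concentration required for complete inhibition of growth.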

Columns and labels:
Test in all cases: growth of human tumour cells (NCI), 48 h
[1] = test system: K-562 leukemia
[2] = test system: SN12C renal
[3] = test system: OVCAR-5 ovarian
[4] = test system: A498 renal
[5] = test system: MCF7 breast
[6] = test system: ACHN renal
[7] = test system: SK-MEL-2 melanoma
[8] = test system: OVCAR-4 ovarian
[9] = test system: RPMI-8226 leukemia
[10] = test system: CCRF-CEM leukemia

| SMILES | TGI [1] | TGI [2] | TGI [3] | TGI [4] | TGI [5] | TGI [6] | TGI [7] | TGI [8] | TGI [9] | TGI [10] | GI50 [1] | GI50 [9] | GI50 [3] | GI50 [4] | GI50 [5] |
| --- | --- | --- | --- | --- | --- | --- | --- | --- | --- | --- | --- | --- | --- | --- | --- |
| Cc1cc(S(=O)(=O)NC2=NCC(C)(C)CN2)c(S)cc1Cl | 80.5 µM | > 100 µM | 51.1 µM | > 100 µM | > 100 µM | 71.6 µM | > 100 µM | 64.5 µM | – | – | – | – | – | – | – |
| Cc1nn(C(=O)c2ccc(Cl)cc2)c2c1C(c1ccc(Cl)cc1)SC(N)=N2 (stereo unspecified) | > 10 µM | > 10 µM | > 10 µM | – | > 10 µM | > 10 µM | > 10 µM | > 10 µM | > 10 µM | > 10 µM | – | – | – | – | – |
| CC(O)C1OC(n2ccc(=O)[nH]c2=O)CC1n1cncn1 (stereo unspecified) | > 100 µM | > 100 µM | > 100 µM | > 100 µM | – | > 100 µM | > 100 µM | > 100 µM | > 100 µM | > 100 µM | – | – | – | – | – |
| COc1ccc2[nH]c3c(O)c(-c4c(C)cc5c([nH]c6ccc(OC)cc65)c4O)c(C)cc3c2c1 | 8.13 µM | 8.17 µM | 7.34 µM | 8.35 µM | 8.43 µM | 8.15 µM | 10.7 µM | 7.22 µM | 7.45 µM | – | 4.04 µM | 3.61 µM | 3.82 µM | 4.78 µM | 4.49 µM |
| CCCC(C(=O)Nc1cccc2[nH]cnc12)C(=O)OCC (stereo unspecified) | > 100 µM | > 100 µM | > 100 µM | > 100 µM | > 100 µM | > 100 µM | > 100 µM | > 100 µM | > 100 µM | – | – | – | – | – | – |
| CN(C(=O)c1ccccc1)c1ccc2c(c1)C(=O)c1ccccc1C2=O | > 100 µM | > 100 µM | > 100 µM | – | – | > 100 µM | > 100 µM | > 100 µM | > 100 µM | > 100 µM | – | – | – | – | – |
| C1=Cc2cccc3occ(c23)C=C1 | 40.1 µM | > 100 µM | > 100 µM | > 100 µM | > 100 µM | > 100 µM | > 100 µM | > 100 µM | – | 49.9 µM | – | – | – | – | – |
| COc1cccc(CCn2c(N)c(C#N)c3ccc([N+](=O)[O-])cc3c2=O)c1 | 11.6 µM | > 100 µM | > 31.6 µM | > 100 µM | > 31.6 µM | > 46.4 µM | > 46.4 µM | > 100 µM | – | > 31.6 µM | – | – | – | – | – |
| N[C@H]1CCN(c2c(F)cc3c(=O)c(C(=O)O)cn4c3c2Oc2c-4ccc3c2ccc2ccccc23)C1 | – | > 100 µM | > 100 µM | > 100 µM | > 100 µM | > 24.4 µM | > 100 µM | > 33.2 µM | 4.11 µM | – | – | – | – | – | – |
| C[C@H]1S[C@H](c2c(F)cccc2F)n2c1nc1ccccc12 | > 100 µM | > 100 µM | > 100 µM | – | > 100 µM | > 100 µM | > 100 µM | > 100 µM | > 100 µM | > 100 µM | – | – | – | – | – |
| COC(=O)/C(=N\N)C(C(=O)C(=O)Nc1nc(=S)[nH][nH]1)c1nc2ccc([N+](=O)[O-])cc2[nH]c1=O (stereo unspecified) | > 100 µM | > 100 µM | > 100 µM | > 100 µM | – | > 100 µM | > 100 µM | > 100 µM | > 100 µM | > 100 µM | – | – | – | – | – |
